Patent publication US20030176314A1, “Compounds for the treatment of pain” (priority 2001, published 2003)

Key:
[1] = target: T1, human α1D adrenergic receptor (Homo sapiens, UniProt P25100); experiment: Binding at human α1D adrenergic receptor; conditions: Table 8; read-out: hα1D Ki
T1 construct: host or cells: LM(tk-) cells, line L-α1A
T1 sequence (P25100 1-572): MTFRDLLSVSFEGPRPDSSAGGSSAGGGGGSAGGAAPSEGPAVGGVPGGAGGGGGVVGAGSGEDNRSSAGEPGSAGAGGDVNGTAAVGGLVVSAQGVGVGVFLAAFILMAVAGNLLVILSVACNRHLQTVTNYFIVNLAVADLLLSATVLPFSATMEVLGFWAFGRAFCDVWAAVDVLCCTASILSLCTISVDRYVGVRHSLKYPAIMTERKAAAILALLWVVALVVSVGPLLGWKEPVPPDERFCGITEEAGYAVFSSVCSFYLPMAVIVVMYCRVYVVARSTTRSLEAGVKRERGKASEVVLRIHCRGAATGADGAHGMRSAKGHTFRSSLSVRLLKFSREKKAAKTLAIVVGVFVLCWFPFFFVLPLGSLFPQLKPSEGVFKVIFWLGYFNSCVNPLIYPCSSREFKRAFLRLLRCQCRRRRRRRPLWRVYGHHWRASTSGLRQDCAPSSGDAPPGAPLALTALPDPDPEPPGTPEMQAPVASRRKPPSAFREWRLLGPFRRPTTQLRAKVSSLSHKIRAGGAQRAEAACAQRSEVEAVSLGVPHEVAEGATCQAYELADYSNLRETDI
Excerpt: α1 Human Adrenergic Receptors: To determine the binding of compounds to human α1 receptors, LM(tk−) cell lines stably transfected with the genes encoding the α1a, α1b, and α1d receptors were used. The nomenclature describing the α1 receptors was changed recently, such that the receptor formerly designated α1a is now designated α1d, and the receptor formerly designated α1c is now designated α1a. The cell lines expressing these receptors were deposited with the ATCC before the nomenclature change and reflect the subtype designations formerly assigned to these receptors. Thus, the cell line expressing the receptor described herein as the α1a receptor was deposited with the ATCC on Sep. […] The cell line expressing receptor described herein as the α1d receptor was deposited with the ATCC on Sep. […] The cell line expressing the α1b receptor is designated L-α1B, and was deposited on Sep.
(§1) The binding affinity (Ki) of these compounds were tested according to the protocols described herein at the following receptors; human α1A, α1B, α1D, α2A, α2B, and α2C adrenergic receptors; human Y1, Y2, Y4, and Y5 receptors; and N-Methyl-D-aspartic acid (NMDA) receptor channels. The binding interactions of these compounds were additionally tested at the norepinephrine (NE) transporter (NE uptake) and serotonin (5-hydroxytryptamine (5HT)) transporter (5HT uptake) according to protocols described herein

[2] = target: T2, human α2A adrenergic receptor (Homo sapiens, UniProt P08913); experiment: Binding at human α2A adrenergic receptor; conditions: Table 8; read-out: hα2A Ki
T2 construct: host or cells: LM(tk-) cells, line L-α2A
T2 sequence (P08913 1-465): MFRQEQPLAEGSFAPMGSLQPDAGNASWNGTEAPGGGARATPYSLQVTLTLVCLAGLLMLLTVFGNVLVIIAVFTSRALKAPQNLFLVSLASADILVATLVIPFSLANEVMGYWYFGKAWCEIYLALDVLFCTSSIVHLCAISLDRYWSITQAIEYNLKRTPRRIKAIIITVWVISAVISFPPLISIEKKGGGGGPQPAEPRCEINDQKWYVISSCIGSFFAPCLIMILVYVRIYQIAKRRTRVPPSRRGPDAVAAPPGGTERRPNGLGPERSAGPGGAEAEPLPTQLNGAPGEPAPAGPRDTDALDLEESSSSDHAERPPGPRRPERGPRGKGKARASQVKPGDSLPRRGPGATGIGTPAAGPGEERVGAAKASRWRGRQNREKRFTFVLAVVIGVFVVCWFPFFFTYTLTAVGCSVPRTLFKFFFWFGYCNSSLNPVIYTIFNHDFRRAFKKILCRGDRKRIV
Excerpt: (§2) α2 Human Adrenergic Receptors: To determine the binding of compounds to human α2 receptors, LM(tk−) cell lines stably transfected with the genes encoding the α2A, α2B, and α2C receptors were used. The cell line expressing the α2A receptor is designated L-α2A, and was deposited on Nov. 6, 1992, under ATCC Accession No. CRL 11180. The cell line expressing the α2B receptor is designated L-NGC-α2B, and was deposited on Oct. 25, 1989, under ATCC Accession No. CRL 10275. The cell line expressing the α2C receptor is designated L-α2C, and was deposited on Nov. 6, 1992, under ATCC Accession No. CRL-11181. Cell lysates were prepared as described herin, and suspended in 25 mM glycyiglycine buffer (pH 7.6 at room temperature). Equilibrium competition binding assay were performed using […] (0.5 nM), and nonspecific binding was determined by incubation with 10 μM phentolamine. The bound radioligand was separated by filtration through GF/B filters using a cell harvester.
as §1

[3] = target: T3, human α2C adrenergic receptor (Homo sapiens, UniProt P18825); experiment: Binding at human α2C adrenergic receptor; conditions: Table 8; read-out: hα2C Ki
T3 construct: host or cells: LM(tk-) cells, line L-α2C
T3 sequence (P18825 1-462): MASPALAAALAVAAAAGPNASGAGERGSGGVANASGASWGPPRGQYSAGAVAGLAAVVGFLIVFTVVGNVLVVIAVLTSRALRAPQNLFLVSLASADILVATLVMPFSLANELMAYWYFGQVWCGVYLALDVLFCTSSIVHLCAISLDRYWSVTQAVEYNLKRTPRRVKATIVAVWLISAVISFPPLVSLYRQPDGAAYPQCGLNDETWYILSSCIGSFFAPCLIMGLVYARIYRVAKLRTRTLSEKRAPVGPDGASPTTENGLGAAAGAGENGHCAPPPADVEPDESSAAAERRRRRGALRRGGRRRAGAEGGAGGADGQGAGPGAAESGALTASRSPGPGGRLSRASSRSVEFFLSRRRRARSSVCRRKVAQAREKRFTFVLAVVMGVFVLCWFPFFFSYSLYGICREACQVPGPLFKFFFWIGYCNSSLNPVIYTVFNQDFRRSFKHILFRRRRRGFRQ
Excerpt: as §2, §1

| Ki [2] [nM] | Ki [3] [nM] | Structure (SMILES) | Ki [1] [nM] |
| --- | --- | --- | --- |
|  |  | Cc1nc(NC(=N)N)nc2ccc3ccccc3c12 [Compound 1007A] | 8580 |
| 199 | 765 | Cc1cc(NC(=N)N)nc2ccc(Cl)cc12 [Compound 4005A, N-(6-chloro-4-methyl-2-quinolinyl)guanidine] |  |
